Results: patent publication US10617735B2, “Methods and compositions for preserving retinal ganglion cells” (Massachusetts Eye and Ear Infirmary, priority 2010, dated 2020)
Where a SMILES comes first, the peptide text is derived from it. The star is where a group is joined. Cbz = O=C(OCc1ccccc1)*; CH2F = FC*

Key:
[1] = test system: caspase-8, caspase-9 and caspase-3; assay: Caspase-8, caspase-9 and caspase-3 activities in the retina after ON injury (commercial kit); assay type: in vivo, mouse; settings: one day after ON injury, intravitreal Z-VAD
Excerpt: Two mouse models of RGC death were utilized: optic nerve (ON) injury and N-methyl-D-aspartate (NMDA) retinal excitotoxicity. ON injury leads to RGC death as a result of primary damage to the axons, with its ensuing disruption of retrograde axonal transport (Libby et al., (2005) PLOS GENET 1:17-26) and is used as an RGC death model. In the ON injury model, mice were anesthetized and subjected to severe crush injury at 1-2 mm distance from the eyeball for 15 seconds using cross-action forceps taking special care not to interfere with the blood supply (Levkovitch-Verbin, (2004) EYE 18:1066-1074). Injured mice were randomly divided into 4 groups for treatment: vehicle group (0.5% DMSO and 0.8% cyclodextrin in PBS, n=6), ZVAD group (300 n=6), Nec-1 group (4 mM, n=6), and ZVAD plus Nec-1 group (n=6). Soon after injury, each group received an intravitreal injection (2 μl) with the respective compounds. […]
In human glaucoma, RGC death has been attributed mainly to apoptosis (Kerrigan et al., (1997), Tatton et al., (2001)). […] The activities of caspase-8, caspase-9 and caspase-3 were measured using a commercially available kit according to the manufacturer's instructions (APT171/131/139; Millipore, Billerica, Mass.).

[2] = test system: TNF-α; assay: TNF-α level in the retina after ON injury (quantitative real-time RT-PCR); assay type: in vivo, mouse; settings: one day after ON injury; intravitreal Z-VAD (300 uM) and/or Nec-1 (400 uM)
Procedure: Total RNA extraction, cDNA synthesis and PCR amplification have been performed as previously reported (Kayama et al., (2010) OPHTHALMIC RES 43:79-91). A real-time PCR assay was performed with Prism 7700 Sequence Detection System (Applied Biosystems, Foster City, Calif.). The primers are shown below in Table 1.
For relative comparison of each gene, the Ct value of real-time PCR data was analyzed with the ΔΔCt method and normalized to an endogenous control ([…].
To investigate whether TNF-α is involved in RGC cell death in mice subjected to optic nerve (ON) injury (induced by physical injury to the optic nerve), TNF-α level in the retina was measured using quantitative real-time RT-PCR. As depicted in FIG. 2A, at one day after ON injury, TNF-α mRNA levels increased almost 10- to 13-fold relative to non-injured mice.

[3] = test system: retinal ganglion cells (RGCs); assay: TUNEL staining after ON injury; assay type: in vivo, mouse
Excerpt: Two mouse models of RGC death were utilized: optic nerve (ON) injury and N-methyl-D-aspartate (NMDA) retinal excitotoxicity. ON injury leads to RGC death as a result of primary damage to the axons, with its ensuing disruption of retrograde axonal transport (Libby et al., (2005) PLOS GENET 1:17-26) and is used as an RGC death model. In the ON injury model, mice were anesthetized and subjected to severe crush injury at 1-2 mm distance from the eyeball for 15 seconds using cross-action forceps taking special care not to interfere with the blood supply (Levkovitch-Verbin, (2004) EYE 18:1066-1074). […] Soon after injury, each group received an intravitreal injection (2 μl) with the respective compounds. In the NMDA retinal excitotoxicity model, NMDA (2 μl of a 0.1M stock; Sigma-Aldrich) was injected intravitreously in combination with ZVAD, Nec-1, or ZVAD plus Nec-1 and mice were separated into the aforementioned 4 groups. The dose of these compounds was selected based on previous studies (Karl et al., (2008) PROC NATL ACAD SCI USA 105:19508-19513; Knoferle et al., (2010) PROC NATL ACAD SCI USA 107:6064-6069; Nakazawa et al., (2006) J NEUROSCI 26:12633-12641; Rosenbaum et al., (2010) J NEUROSCI RES 88:1569-1576).
Intravitreal injections were performed as follows. Briefly, the tip of a 33 gauge needle (Hamilton, Reno, Nev.) was carefully inserted through the sclera into the intravitreal space to reduce intraocular pressure. Then, the needle was extracted, loaded with compounds and tangentially reinserted through the sclera into the intravitreal space, inducing a self-sealing wound tunnel. After injection, the absence of choroidal bleeding was confirmed. At specified times after injury, mice were sacrificed with an overdose of sodium pentobarbital, and eyes were enucleated.

[4] = test system: retinal ganglion cells (RGCs); assay: Propidium iodide (PI) staining of necrotic cells in GCL after ON injury; assay type: in vivo, mouse; settings: one day after ON injury, wild-type mice
Excerpt: To investigate further the underlying mechanism of why Z-VAD fails to prevent RGC death after ON injury, propidium iodide (PI) was used to detect necrotic cells in GCL (Unal Cevik et al., (2010)). At one day after ON injury, Z-VAD administration increased the number of PI positive cells compared with vehicle (FIGS. 4A and 4B).

[5] = test system: Apoptosis inducing factor (AIF); assay: AIF immunostaining with TUNEL after ON injury (nuclear translocation); assay type: in vivo, mouse; settings: one day after ON injury
Procedure: Apoptosis inducing factor (AIF) is a mitochondrial flavoprotein which is involved in initiating caspase-independent apoptosis. After loss of mitochondrial membrane potential, AIF translocates into the nucleus, induces DNA fragmentation and peripheral chromatin condensation (Susin et al., (1999), Susin et al., (2000), Candé et al., (2004)). To analyze whether mitochondrial release of AIF is associated with RGC death after ON injury, immunostaining for AIF was performed together with TUNEL assay. One day after ON injury, there was a prominent nuclear translocation of AIF, which was not affected by pan-caspase inhibition (FIGS. 7A and 7B).

[6] = studies on which the dose was selected; cited from earlier work

COC(=O)CC(NC(=O)C(C)NC(=O)C(NC(=O)OCc1ccccc1)C(C)C)C(=O)CF (stereo not drawn) [Z-VAD, Benzyloxycarbonyl-Val-Ala-Asp(OMe)-fluoromethylketone] (Cbz-Val-Ala-Asp(OMe)-CH2F; configuration not given here)
decrease of the activities of the caspases [1]: 70%
increase of TNF-α levels after ON injury [2]: did not affect
TUNEL positive cells ([3]; RIP3−/− mice, one day after ON injury): marked decrease in TUNEL positive cells
TUNEL positive cells (apoptotic RGCs) ([3]; wild-type mice, day one after ON injury, intravitreal Z-VAD (300 uM) and/or Nec-1 (400 uM)): failed to rescue RGCs
number of PI positive cells [4]: increased
nuclear translocation of AIF [5]: not affected
half-life inside the eye [6]: around 6 hours
